Results reported in patent US4447611A, “Benzo-fused and heterocyclic fused imidazole anti-ulcer agents” (American Home Products Corporation, priority 1982, dated 1984).

Experiments:
[1] = biological target: T1, H2 histamine receptors (Cavia porcellus, UniProt P47747); test: guinea pig heart atrium test (histamine-induced positive chronotropic response in spontaneously beating right atrium); format: cell-based; details: 32° C., pH 7.4, 30 minutes after addition of compound, vs histamine dose-response
T1 construct: from tissue; host or cells: guinea pig right atrium (isolated, spontaneously beating)
T1 sequence (P47747 whole entry): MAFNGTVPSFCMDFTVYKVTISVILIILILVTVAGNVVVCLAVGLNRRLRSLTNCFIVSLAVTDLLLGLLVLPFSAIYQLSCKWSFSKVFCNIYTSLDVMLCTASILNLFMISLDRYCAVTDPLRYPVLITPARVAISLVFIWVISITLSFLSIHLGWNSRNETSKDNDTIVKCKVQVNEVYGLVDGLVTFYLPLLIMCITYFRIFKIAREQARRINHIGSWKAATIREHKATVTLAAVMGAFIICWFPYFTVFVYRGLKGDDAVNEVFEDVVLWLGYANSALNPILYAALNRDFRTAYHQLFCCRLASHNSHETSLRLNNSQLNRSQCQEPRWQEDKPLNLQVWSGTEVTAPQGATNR
Procedure: The guinea pig heart atrium test is carried out as follows:
The tissue is allowed to stabilize over 1 hour. Individual contractions are recorded with a force-displacement transducer through a strain gauge coupler. A control dose-response curve to histamine in the above described tissue bath is obtained after which the tissue is washed 3 times and allowed to re-equilibrate to basal rate. The test compound is added to the tissue bath at the desired final concentration. Thirty minutes after addition of the compound, a fresh histamine dose response curve is again obtained. Then the response to histamine in the presence of antagonist is compared to the histamine control response. This procedure is repeated, using fresh tissues, for each concentration of antagonist tested.

[2] = system: rat gastric secretion; test: gastric secretion in the pylorus-ligated rat (modified Shay procedure); format: in vivo; details: 32 mg/kg, interduodenally (i.d.), four hours after ligation, male Charles River rats
Procedure: The procedures for the results of these tests are presented at the end of the following examples, which will serve to illustrate the present invention.
The procedure for testing gastric secretion in the rat, a modification of the procedure of Shay et al., Gastroenterology, 26, 906-13 (1954) is carried out as follows:
Male Charles River rats weighing 200-300 grams are deprived of food but not water for 24 hours prior to use. Water is, however, withheld during the experiment. The rats are weighed, anesthetized, and the pylorus ligated according to the method of Shay et al. Treatment or vehicle control is then administered interduodenally (i.d.). Rats are housed 2/cage and sacrificed with CO2 four hours after ligation. The stomachs are removed, rinsed, and contents emptied into a graduated centrifuge tube. The tubes are centrifuged for 20 minutes at 2,000 RPM and the volume of gastric juice recorded. Any samples obviously contamined by feces, food or hemolysis are eliminated. An aliquot of each is frozen for later analysis of Na^+, K^+ and Cl^- concentration. The pH is measured and 1 ml. of gastric juice is titrated with 0.1 N NaOH to a pH of 7.0-7.4 Titratable acid output is calculated in microequivalents and the percent inhibition of acid output is calculated as follows: [formula]

[3] = cited from earlier work

Structure (SMILES)	pA2 Value (apparent dissociation constant of the H2 antagonist) [1]	% Inhibition (of acid output) [2] [%]	confusional states (in words) ([3]; elderly patients)	anti-androgenic activity (in words) ([3]; patients)	duration of action (in words) ([3]; patients)
c1cc(CN2CCCCC2)cc(OCCCNc2nc3ccccc3[nH]2)c1 [A, 2-[3-[3-[(1-piperidinylmethyl)]phenoxy]propylamine]benzimidazole]	7.1	65	–	–	–
CN/C(=N/CCSCc1nc[nH]c1C)NC#N [Cimetidine]	–	–	a tendency to cause confusional states in elderly patients	anti-androgenic activity	short duration of action
